Measured values as given in US9376424B2, “Methods for treating post traumatic stress disorder” (AZEVAN PHARMACEUTICALS, INC., priority 2010, dated 2016).
“Also recorded” adds a separate entry of the source.

Experiments:
human V1a receptor = target: T1, human V1a receptor (Homo sapiens, UniProt P37288); experiment: Inhibition of phosphatidylinositol turnover (V1a); type: cell-based; settings: V1a
T1 construct: host or cells: CHO cells
From the text: Inhibition of phosphatidylinositol turnover (V1a). The physiological effects of vasopressin are mediated through specific G-protein coupled receptors. The vasopressin V1a receptor is coupled to the Gq/G11 family of G proteins and mediates phosphatidylinositol turnover. The agonist or antagonist character of the compounds of the invention may be determined by their ability to inhibit vasopressin-mediated turnover of phosphatidylinositol by the procedure described in the following paragraphs.
Cell culture and labeling of cells. Three days prior to the assay, near-confluent cultures of hV1a or hV1b cells were dissociated and seeded in 6-well tissue culture plates, about 100 wells being seeded from each 75 cm^2 flask (equivalent to 12:1 split ratio). Each well contained 1 mL of growth medium with 2 μCi of [^3H]myo-inositol (American Radiolabeled Chemicals, St. Louis, Mo., USA).
Incubations (V1a and V1b). All assays were in triplicate except for basal and 10 nM AVP (both n=6). AVP ((arginine vasopressin), Peninsula Labs, Belmont, Calif., USA (#8103)) was dissolved in 0.1N acetic acid. Test agents were dissolved in DMSO and diluted in DMSO to 200 times the final test concentration. […] The order of incubations was randomized. Incubations were initiated by removing the prelabeling medium, washing the monolayer once with 1 mL of 0.9% NaCl, and transferring the contents of the assay tubes to corresponding wells. The plates were incubated for 1 hour at 37° C. Incubations were terminated by removing the incubation medium and adding 500 μL of ice cold 5% (w/v) trichloroacetic acid and allowing the wells to stand for 15 min.
Measurement of [^3H]inositol phosphates (V1a and V1b). BioRad Poly-Prep Econo-Columns were packed with 0.3 mL of AG 1×−8 100-200 formate form resin. Resin was mixed 1:1 with water and 0.6 mL added to each column. Columns were then washed with 10 mL water. Scintillation vials (20 mL) were placed under each column. For each well, the contents were transferred to a minicolumn, after which the well was washed with 0.5 mL distilled water, which was also added to the minicolumn. The columns were then washed twice with 5 mL of 5 mM myo-inositol to elute free inositol. Aliquots (1 mL) were transferred to 20 mL scintillation vials and 10 mL of Beckman Ready Protein Plus added. After the myo-inositol wash was complete, empty scintillation vials were placed under the columns, and [^3H]inositol phosphates were eluted with three additions of 1 mL 0.5 M ammonium formate containing 0.1 N formic acid. Elution conditions were optimized to recover inositol mono-, bis-, and trisphosphates, without eluting the more metabolically inert tetrakis-, pentakis-, and hexakis-phosphates. To each sample was added 10 mL of a high salt capacity scintillation fluid such as Tru-Count High Salt Capacity or Packard Hionic-Fluor. Inositol lipids were measured by adding 1 mL of 2% sodium dodecyl sulfate (SDS) to each well, allowing the wells to stand for at least 30 min., and transferring the solution to 20 mL scintillation vials, to which 10 mL Beckman Ready Protein Plus scintillation fluid was then added. Samples were counted in a Beckman LS 3801 liquid scintillation counter for 10 min. Total inositol incorporation for each well was calculated as the sum of free inositol, inositol phosphates, and inositol lipids.
Data analysis (V1a and V1b): concentration-inhibition experiments. Concentration-response curves for AVP and concentration-inhibition curves for test agents versus 10 nM AVP were analyzed by nonlinear least-squares curve-fitting to a 4-parameter logistic function. Parameters for basal and maximal inositol phosphates, EC50 or IC50, and Hill coefficient were varied to achieve the best fit. The curve-fitting was weighted under the assumption that the standard deviation was proportional to dpm of radioactivity. Full concentration-response curves for AVP were run in each experiment. […]

male Long Evans rats = experiment: Predatory fear conditioning model of PTSD (ferret/sucrose, fMRI of awake rats); type: in vivo, rat
From the text: The use of the compounds and compositions described herein for treating PTSD and stress-related affective illness is established using a model of predatory fear conditioning. The model uses fMRI data of rats exposed to a ferret, a natural predator, as the unconditioned stimulus while experiencing the taste of sucrose, which is highly rewarding, as the conditioned stimulus. The taste of sucrose becomes associated with the traumatic memory of the ferret. […] This hyperarousal pattern of brain activity in response to a stimulus associated with a traumatic memory is characteristic of PTSD. […] Thus, the memory of fear is worse than fear itself. Treatment with compounds and compositions described herein block the hyperarousal seen with the sucrose-associated traumatic memory in untreated animals. The compounds described herein are efficacious in a this new preclinical model of PTSD in rats that utilized predatory fear as the unconditioned stimulus and the taste of sucrose as the conditioned stimulus. […] Compounds described herein are also efficacious in established models of depression (social interaction test), anxiety (Elevated Plus Maze, Light:Dark Shuttle Box), and aggression (resident:intruder test). The predatory fear conditioning juxtaposes an aversive unconditioned stimulus (threat of predation), with the taste of sucrose as the conditioned stimulus. During an imaging session, awake rats are exposed to a live, sable ferret placed into the bore of the magnet. This presentation of the predator is done with and without the application of sucrose to the tongue of the rat. Retrieval of the memory weeks later by the application of sucrose alone (as a Conditioned Stimulus) in the absence of the ferret elicits a robust increase in brain activity that far exceeds the initial presentation of the predator. […]

C57B1/6J males = experiment: Social Interaction Test after chronic social subjugation; type: in vivo, mouse; settings: mice, 28-day treatment regimen
From the text: Mouse Chronic Subordination Model of Depression. Social stress is a factor in the etiology of several psychopathologies, with individuals differing in vulnerability. Adult male mice are subjected to a model of chronic psychosocial stress in which resident/intruder dyads live chronically in sensory contact and physically interact on a daily basis.
Anti-depressant Effect in the Social Interaction Test. […] A rapid subjugation paradigm in mice lead to diminished social interaction behavior, where the dependent measures are distance traveled and time in the Interaction Zone. […] These observations are consistent with the subordination/social interaction model as a rapid behavioral screen for potential antidepressants. Additional details are described in Berton et al. (2006).
Briefly, C57B1/6J males were defeated daily for 10 days by resident, highly aggressive CF-1 males. After 5 minutes of direct exposure, a perforated plastic partition was inserted into the cage that allowed olfactory and visual contact without physical defeat for the remaining 23 hr 55 min each day. The C57 males were exposed to a different resident male in a different cage each day to increase the stress of the procedure (it was observed that all CF-1 males attacked the intruder each day). At the end of the 10 day defeat procedure, the C57 males were tested in an open field apparatus during the dark phase. A dominant male was caged in an area of the open field apparatus termed the “social interaction zone.” Time and distance traveled in the zone were recorded. The C57 males were then divided randomly among the following treatments: AVN246-HCl (2 mg/kg), saline vehicle (0.45%), or chlordiazepoxide (10 mg/kg). Treatments were given daily (i.p.) for 28 days and the animals were retested. Behavioral changes were determined by calculating difference scores (Post-Pretest) and these scores were analyzed.

resident male rats = experiment: Resident-Intruder Model of Stress and Aggression in Rats (neuroimaging); type: in vivo, rat; settings: awake resident male rats, 5 mg/kg
From the text: Resident-Intruder Model of Stress and Aggression in Rats. Neuroimaging is used to assess the blockade of stress/arousal with test compound compared to control. The effect of AVN251-HCl on functional circuitry was examined using the imaging method for awake rats. Additional details of the assay are described in Ferris et al. (2008).
Male rats in the company of a female cage mate will piloerect in the presence of a male intruder. This piloerection is a sign of stress and aggressive intent and is associated with activation of stress/arousal circuits in the brain. […] Resident male rats from six male:female pairs were imaged while fully awake. During a single imaging session, these males were treated with vehicle or AVN251-HCl (5 mg/kg).
The total volume of brain activation for resident males confronted with their mate alone, mate plus intruder, and mate plus intruder in the presence of AVN251-HCl can be viewed as 3D models. While there appears to be a general decrease in BOLD signal in major regions with AVN251-HCl treatment, sexual motivation, as assessed by the presentation of a novel receptive female, was unaffected by V1a receptor blockade.
Stress circuit activation in response to an intruder male is assessed by obtaining brain scans viewed from a caudal/dorsal perspective as translucent shells. The localization of activated voxels is mapped as 3D volumes of activation, which are composed of 10 subjects each. Once fully registered and segmented, the statistical responses for each subject are averaged on a voxel-by-voxel basis. Those averaged voxels exceeding a 2.0% threshold are shown in their appropriate spatial location. Functional images are acquired on awake rats at 4.7 T.
The 3D volumes of activation are composed from results obtained with 10 subjects in each condition. […] Particular olfactory systems measured included the anterior olfactory nucleus, olfactory tubercle, piriform cortex, n. laterial olfactory tract, and entrorhinal cortex. Particular dopaminergic systems measured included the prelimbic cortex, accumbens, ventral pallidum, medial dorsal thalamus, and ventral tegmentum.
Awake rats were imaged when presented with their mate+an intruder, a highly stressful stimulus.

T1 sequence (P37288 whole entry): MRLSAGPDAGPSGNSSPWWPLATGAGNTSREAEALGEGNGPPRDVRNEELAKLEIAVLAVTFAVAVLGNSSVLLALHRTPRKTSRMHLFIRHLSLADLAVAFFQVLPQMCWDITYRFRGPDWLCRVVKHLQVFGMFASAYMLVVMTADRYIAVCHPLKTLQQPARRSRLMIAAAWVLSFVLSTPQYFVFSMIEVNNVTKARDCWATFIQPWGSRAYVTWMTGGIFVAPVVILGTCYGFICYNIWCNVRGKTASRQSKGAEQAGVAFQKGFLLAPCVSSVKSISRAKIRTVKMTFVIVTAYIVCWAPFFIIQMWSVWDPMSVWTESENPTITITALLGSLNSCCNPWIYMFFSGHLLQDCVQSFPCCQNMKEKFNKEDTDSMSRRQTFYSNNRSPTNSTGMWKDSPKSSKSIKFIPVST

O=C(NCc1cccc(C(F)(F)F)c1)C(CC(=O)N1CCC(N2CCCCC2)CC1)N1C(=O)C(N2C(=O)OCC2c2ccccc2)C1C=Cc1ccccc1 (stereo not shown) [Example 44]
agonist or antagonist character (inhibition of vasopressin-mediated phosphatidylinositol turnover) (human V1a receptor): vasopressin V1a antagonists

C[C@@H](NC(=O)[C@@H](CC(=O)N1CCC(N2CCCCC2)CC1)N1C(=O)[C@@H](N2C(=O)OC[C@@H]2c2ccccc2)[C@H]1/C=C/c1cccc(I)c1)c1ccccc1 [Example 266]
retrieval of predatory fear memory (male Long Evans rats): effective in blocking retrieval of predatory fear memory | predatory fear response in the unconditioned test animal (activation for ferret alone) (male Long Evans rats; pretreatment 5 mg/kg body weight): retained | hyperarousal brain activation pattern (BOLD) on re-exposure to sucrose alone (male Long Evans rats; pretreatment 5 mg/kg body weight, two weeks after conditioning, listed as AVN576): blocked the hyperarousal brain activation pattern; also recorded: significantly reduces brain activation

O=C(NCc1cccc(C(F)(F)F)c1)C(CCC(=O)N1CCN(C2CCCCC2)CC1)N1C(=O)C(N2C(=O)OCC2c2ccccc2)C1C=Cc1ccccc1 (single isomer, unassigned) [Example 110]
agonist or antagonist character (inhibition of vasopressin-mediated phosphatidylinositol turnover) (human V1a receptor): vasopressin V1a antagonists

O=C(NCc1cccc(C(F)(F)F)c1)[C@H](CCC(=O)N1CCN(CCc2ccccc2)CC1)N1C(=O)[C@@H](N2C(=O)OC[C@@H]2c2ccccc2)[C@H]1C=Cc1ccccc1 (single isomer, unassigned) [Example 35]
agonist or antagonist character (inhibition of vasopressin-mediated phosphatidylinositol turnover) (human V1a receptor): vasopressin V1a antagonists

O=C(NCc1cccc(C(F)(F)F)c1)C(CCC(=O)N1CCC(N2CCCCC2)CC1)N1C(=O)C(N2C(=O)OCC2c2ccccc2)C1C=Cc1ccccc1 (stereo not shown) [Example 88]
agonist or antagonist character (inhibition of vasopressin-mediated phosphatidylinositol turnover) (human V1a receptor): vasopressin V1a antagonists

CNCCC(Oc1ccc(C(F)(F)F)cc1)c1ccccc1 (stereo not shown) [fluoxetine]
effect on deficits in social interaction produced by chronic subordination (C57B1/6J males): reversed deficits produced by chronic subordination | effect on deficits in social interaction produced by chronic subordination (C57B1/6J males; listed as Fluoxetine): produced comparable improvements | sexual motivation (reward circuit activation by novel receptive female) (resident male rats): markedly diminished activation of this circuit
